# From patent US20220241314A1, “COMPOSITIONS AND METHODS FOR TREATMENT OF HEPATITIS B VIRUS INFECTION” (priority 2019, published 2022)
# {ppp} = triphosphate
# How the values were obtained:
# HBV cccDNA = assay: Decay kinetics of established cccDNA and HBsAg secretion under treatment from 3 dpi to 20 dpi; assay type: cell-based, HBV (Genotype D); conditions: HepG2-hNTCP; for production and secretion of HBsAg / cccDNA levels over treatment time course (Southern blot, qPCR): treatment from 3 dpi through 20 dpi; for cccDNA levels over treatment time course (Southern blot, qPCR) / delay before cccDNA starts decreasing (τ) / half-life of cccDNA (t1/2): ETV 500 nM, F7 10 μM, poly-U/UC 100 ng/ml; for delay before cccDNA starts decreasing (τ) / half-life of cccDNA (t1/2): treatment from 3 dpi, model fit of RT-qPCR data, three replicates
# Description: (5A) HBV infection and treatment schedule. On day 0 HepG2-hNTCP cells were infected with HBV at moi of 1000 Geq/cell, incubated for 24 hr, and media was replaced. On day three the cells were harvested or treated with DMSO, ETV (500 nM), F7 (10 μM), poly-U/UC (100 ng/ml), or with ETC combination with F7 or poly-U/UC, PAMP. Cells were harvested at the indicated points over a 20-day time course. (5B), (5C) DNA was isolated by Hirt extract and subjected to Southern blot analysis using an HBV-specific DNA probe. Percentage values below each lane indicate the relative amount of cccDNA compared to day three control prior to each treatment. The positions of mass markers are indicated. (5D) cccDNA levels were measured by RT-qPCR. Relative cccDNA values to mitochondrial DNA (MT-CO3) are shown. Statistical significance was determined using Student's t test. Data are presented as mean standard deviation (SD), *P<0.01, **P<0.005, ***P<0.001 and ns=non-significant (E) Half-life of cccDNA from RT-qPCR analyses was estimated from the simultaneous fitting of three replicates under each treatment strategy. C(t) is the % values of cccDNA at time ‘t’ post-treatment, C(0) is the % values of cccDNA at the start of the treatment. (5F) HBsAg across the time course for each treatment series. Statistical significance as determined using Student's t test. Data are presented as mean standard deviations (SD), **P<0.005, and ns=non-significant.
# ETV is a nucleoside analog that prevents the viral reverse transcription and replication of new synthesized HBV DNAs, thereby preventing the replenishment of cccDNA by de novo formation. ETV was applied to HBV-infected cultures at a 100-fold IC50 (Langley, D. R., et al. (2007). Inhibition of Hepatitis B Virus Polymerase by Entecavir. Journal of virology 81, 3992-4001) thereby allowing for the measurement of cccDNA half-life under conditions in which levels are sustained only from the initial cccDNA pool. Cells were then harvested over a treatment time course, and DNA extracts were analyzed by Southern blot and qPCR assay. […] J Hepatol 69, 1231-1241). […] Enhanced cccDNA decay kinetics by F7 treatment was also confirmed by RT-PCR analysis (FIG. 5D). […] Thus, F7 and poly-U/UC PAMP impart the therapeutic decay of established cccDNA.
# Reverse transcription quantitative real time qPCR (RT-qPCR) analysis: Total cellular RNAs were extracted from cells using TRIZOL reagent and the manufacturers protocol (Invitrogen). cDNA was synthesized from the purified RNA by both random and oligo (dT) priming using iScript select cDNA synthesis kit (Biorad, Inc.). For HBV cccDNA expression analysis, total DNA was extracted using the DNeasy kit (QIAGEN). For selective cccDNA PCR analysis, isolated DNAs were treated with 10 Units of T5 exonuclease (NEB) for 30 min in 10 μl of reaction volume in 37° C., followed by heat-inactivation at 95° C. for 5 min and 4-fold dilution with Nuclease-free water. For extra-cellular HBV DNA quantification, an external HBV plasmid standard was used to program the PCR (Ko, C., et al. (2018), supra).
# RIG-I = assay: IRF3 activation in RIG-I or MDA5 knockout HepG2-hNTCP cells (immunoblot); assay type: cell-based, human; conditions: 24 hours
# Description: FIGS. 6A-6D illustrate that F7 and poly-U/UC PAMP specifically signal IRF3 activation through RIG-I to suppress HBV cccDNA. (6A) F7 was administered for 24 hours to HepG2-hNTCP-NT (expressing non-targeting guide RNA), RKO (RIG-I knockout expressing RIG-I-targeting guide RNA), and MKO (MDA5-knock out expressing MDA5-targeting guide RNA). Cells were harvested and analyzed by immunoblot. The levels of protein expression by p-IRF3 (S386 phosphorylated, active IRF3), IRF3 (total IRF), IFIT1, RIG-I, and MDA5 relative to the expression level of tubulin were determined using respective antibodies. (6B) HepG2-hNTCP-NT, RKO, and MKO cells were treated with 100 ng,/ml of X-RNA or 100 ng/ml or 200 ng/ml of poly-U/UC PAMP for 24 hr. Cells were harvested and analyzed by immunoblot as in (6A). (6C and 6D) Cells were infected with HBV at moi of 1000 Geq/cell. After 24 hour cultures were treated with DMSO (−; negative control), CsA (treatment control), (6C) 10 μM) or F7 or (6D) X RNA or poly-U/UC PAMP. Three days later the cells were harvested, Hirt extracts prepared and subjected to Southern blot analysis using as HBV-DNA probe. The positions of mass markers are indicated. Values beneath each lane show percent cccDNA remaining compared to control treatment.
# In order to ascertain whether the activation of IRF3 and suppression of cccDNA in HBV-infected cells by F7 or poly-U/UC PAMP treatment was dependent on RIG-I rather than occurring as an off-target effect of IRF3 agonist treatment, HepG2-hNTCP cells expressing non-targeting guide RNA (HepG2-hNTCP-NT), or guide RNA for knockout (KO) of RIG-I expression (HepG2-hNTCP-RKO) or MDA5 (HepG2-hNTCP-MKO) were produced using CRISPR/Cas9 genome editing technology. […] Next, each cell population was infected with HBV followed by a single treatment with F7 or poly-U/UC PAMP at 1 dpi. Cells were harvested at 3 dpi for Southern blot analysis of cccDNA levels. Parallel cultures of each cell population were treated with DMSO or single dose X-RNA (negative control) or with CsA as a treatment control. […]
# [1] = HepG2-hNTCP-RKO (RIG-I knockout) cells
molecule,measurement,setting,value
"O=C(Nc1ccc2nc(NC(=O)c3ccc4ccccc4c3)sc2c1)c1ccccc1 [F7, N-(6-benzamido-1,3-benzothiazol-2-yl)naphthalene-2-carboxamide]",production and secretion of HBsAg,HBV cccDNA,suppressed HBsAg secretion
same,"cccDNA levels over treatment time course (Southern blot, qPCR)",HBV cccDNA,stimulated the decay of cccDNA
same,delay before cccDNA starts decreasing (τ),HBV cccDNA,4.0 days
same,half-life of cccDNA (t1/2),HBV cccDNA,209 h
same,phosphorylated/activated IRF3 and IFIT1 expression,RIG-I; HepG2-hNTCP-NT control and HepG2-hNTCP-MKO (MDA5 knockout) cells,fully respond to F7
same,phosphorylated/activated IRF3 and IFIT1 expression,RIG-I; [1],do not respond to treatment
"poly-U/UC PAMP: ~100 nt PAMP motif from the HCV genome comprising 5′ppp and the poly U/UC region, recognized by RIG-I; formulated in liposome (nucleic acid, RNA, 5' {ppp}, backbone and methylation of C not given here; formulated in liposome, ~100 nt PAMP motif from the HCV genome comprising 5′ppp and the poly U/UC region, recognized by RIG-I; formulated in liposome) GGCCAUCCUGUUUUUUUCCCUUUUUUUUUUUCUUUUUUUUUUUUUUUUUUUUUUUUUUUUUUUUUUCUCCUUUUUUUUUCCUCUUUUUUUCCUUUUCUUUCCUUU",production and secretion of HBsAg,HBV cccDNA,suppressed HBsAg secretion
same,"cccDNA levels over treatment time course (Southern blot, qPCR)",HBV cccDNA,reduced the cccDNA abundance
same,delay before cccDNA starts decreasing (τ),HBV cccDNA,3.8 days
same,half-life of cccDNA (t1/2),HBV cccDNA,185 h
same,phosphorylated/activated IRF3 and IFIT1 expression,RIG-I; [1],do not respond to treatment
